Experiment [1] concerns CT26 CRC cell transplants. Kind of experiment: syngeneic subcutaneous CT26 colorectal cancer mouse model: tumor growth and survival. It is filed as in vivo, female BALB/c mice. As for the experimental part: (§1) As for experiments employing the use of chemotherapy, carboplatin (Sindan, 10mg/ml), oxaliplatin (Mylan, 5mg/ml in infusion solution) and paclitaxel (Accord, 6mg/ml in 527mg/ml polyoxyethylated castor oil and 391 mg/ml ethanol) were provided by Istituto Nazionale dei Tumori, Milano.
(§2) The impact of oral Leucine supplementation, as given at a daily dose of 500 mg/Kg Leucine by oral gavage, was investigated on in vivo tumor growth and mouse survival in orthotopic (4T1 and E0771 TNBC cells injected in the mammary fat pad of female BALB/c mice and female C57BL6/J mice, respectively) or subcutaneous (CT26: murine colorectal carcinoma - CRC, or LLC: murine […] lung carcinoma cells, injected in the subcutaneous tissue of female BALB/c mice and female C57BL6/J mice, respectively) syngeneic tumor models.

The subject of experiment [2] is E0771 cell transplants. Kind of experiment: syngeneic orthotopic E0771 TNBC mouse model: tumor growth and survival. Format: in vivo, female C57BL6/J mice. As for the experimental part: as §1, §2
Experiment [3] concerns 4T1-luc cell transplants. Briefly: syngeneic orthotopic 4T1 TNBC mouse model: tumor growth and survival. It is filed as in vivo, female BALB/c mice. As for the experimental part: as §1, §2
Experiment [4] concerns LLC lung cell transplants. Kind of experiment: syngeneic subcutaneous LLC lung cancer mouse model: tumor growth and survival. It is filed as in vivo, female C57BL6/J mice. As for the experimental part:
as §1, §2

The test system of experiment [5] is syngeneic mouse tumor models. The note with it: Leucine + anti-PD-L1 immunotherapy, tumor model not stated.
Where [6] appears, read: Leucine 500 mg/kg daily oral gavage + anti-PD-L1 MoAb 100 ug per mouse i.p. every other day, 4 cycles.
[7] abbreviates: Leucine 500 mg/kg daily oral gavage + cyclic fasting (48-hour water-only fasting, repeated every 7 days).
The mark [8] stands for this setting: Leucine 500 mg/kg daily oral gavage + oxaliplatin 5 mg/kg once a week i.p., effect less evident, yet still statistically significant.
The mark [9] stands for this setting: Leucine 500 mg/kg once a day by oral gavage, alone, standard diet.
Where [10] appears, read: Leucine 500 mg/kg daily oral gavage + paclitaxel 30 mg/kg once a week i.p., most relevant effects in this model.
The mark [11] stands for this setting: Leucine 500 mg/kg daily + cyclic fasting + carboplatin 50 mg/kg weekly + anti-PD-L1 MoAb, compared to the fasting-Leucine doublet.
Setting [12] is: Leucine 500 mg/kg daily oral gavage + carboplatin 50 mg/kg once a week i.p., effect less evident, yet still statistically significant.
[13] abbreviates: Leu + fasting + anti-PD-L1, compared to anti-PDL1 MoAb + fasting.
[14] abbreviates: carboplatin alone, 50 mg/kg once a week i.p.
Where [15] appears, read: oxaliplatin alone, 5 mg/kg once a week i.p.
Where [16] appears, read: paclitaxel alone, 30 mg/kg once a week i.p.

The structures appear in SMILES notation.

Regarding `CC(C)C[C@H](N)C(=O)O` [Leucine], the animal survival result in experiment [1] (Leucine 500 mg/kg daily + cyclic fasting + oxaliplatin 5 mg/kg weekly + anti-PD-L1 MoAb, compared to the fasting-Leucine doublet) is listed as “meaningful prolongation of animal survival”; in experiment [1] (setting [6]) it was “prolonged animal survival”; in experiment [1] (setting [7]) it was “significant prolongation of animal survival”; in experiment [1] (setting [8]), “prolonging animal survival”; in experiment [1] (setting [9]) it was “prolonged animal survival”; in experiment [2] (Leucine 500 mg/kg daily + cyclic fasting + paclitaxel 30 mg/kg weekly + anti-PD-L1 MoAb, compared to the fasting-Leucine doublet), “meaningful prolongation of animal survival”. The animal survival entry is “prolonged animal survival” in experiment [2] (setting [6]); “significant prolongation of animal survival” in experiment [2] (setting [7]); “prolonging animal survival” in experiment [2] (setting [10]); “prolonged animal survival” in experiment [2] (setting [9]); “meaningful prolongation of animal survival” in experiment [3] (setting [11]); “prolonged animal survival” in experiment [3] (setting [6]). The animal survival entry in experiment [3] (setting [12]) was “prolonging animal survival”; in experiment [3] (setting [7]), “significant prolongation of animal survival”; in experiment [3] (setting [9]), “prolonged animal survival”; in experiment [4] (setting [13]), “prolonged animal survival”; in experiment [4] (setting [11]), “meaningful prolongation of animal survival”; in experiment [4] (setting [12]), “prolonging animal survival”. Besides, the animal survival result in experiment [4] (setting [7]) is reported as “significant prolongation of animal survival”; in experiment [4] (setting [9]), “prolonged animal survival”. The “in vivo tumor growth” value was “cooperatively slowed down in vivo tumor growth” in experiment [1] (setting [6]); “cooperative reduction of in vivo tumor growth” in experiment [1] (setting [7]); “cooperated with chemotherapy in slowing down in vivo tumor growth” in experiment [1] (setting [8]); “cooperatively slowed down in vivo tumor growth” in experiment [2] (setting [6]); “cooperative reduction of in vivo tumor growth” in experiment [2] (setting [7]); “cooperated with chemotherapy in slowing down in vivo tumor growth” in experiment [2] (setting [10]). The “in vivo tumor growth” value is given as “cooperatively slowed down in vivo tumor growth” in experiment [3] (setting [6]); “cooperated with chemotherapy in slowing down in vivo tumor growth” in experiment [3] (setting [12]); “cooperative reduction of in vivo tumor growth” in experiment [3] (setting [7]); “cooperated with chemotherapy in slowing down in vivo tumor growth” in experiment [4] (setting [12]); “cooperative reduction of in vivo tumor growth” in experiment [4] (setting [7]). Besides, the primary tumor growth entry in experiment [1] (setting [9]), in experiment [2] (setting [9]), in experiment [3] (setting [9]) and in experiment [4] (setting [9]) was “slowed down primary tumor growth” each time. For the same molecule, the primary tumor entry in experiment [1] (quadruple treatment: Leucine + cyclic fasting + oxaliplatin + anti-PD-L1 MoAb) and in experiment [2] (quadruple treatment: Leucine + cyclic fasting + paclitaxel + anti-PD-L1 MoAb) was “complete regression of the primary tumor in some mice” in each case. Also, the tumor growth result in experiment [4] (setting [13]) is reported as “significantly slowed down tumor growth”. The primary tumor mass result in experiment [5] (observed in some animals) is “completed disappearance of the primary tumor mass”. The “survival of some mice” value in experiment [5] (some mice) is given as “long-term survival”.
Regarding `N.N.O=C([O-])C1(C(=O)[O-])CCC1.[Pt+2]` [carboplatin, reference compound], in experiment [3] (setting [14]), the animal survival result is reported as “statistically significant prolongation of animal survival” and the “in vivo tumor growth” value is “slowed down in vivo tumor growth”. Besides, in experiment [4] (setting [14]), the animal survival result was “statistically significant prolongation of animal survival” and the “in vivo tumor growth” value was “slowed down in vivo tumor growth”.
As to `O=C1[O][Pt]2([NH][C@@H]3CCCC[C@H]3[NH]2)[O]C1=O` [oxaliplatin, reference compound], in experiment [1] (setting [15]), the animal survival entry is recorded as “statistically significant prolongation of animal survival” and the “in vivo tumor growth” value is “slowed down in vivo tumor growth”.
As for `CC(=O)O[C@H]1C(=O)[C@@]2(C)[C@H]([C@H](OC(=O)c3ccccc3)[C@]3(O)C[C@H](OC(=O)[C@H](O)[C@@H](NC(=O)c4ccccc4)c4ccccc4)C(C)=C1C3(C)C)[C@]1(OC(C)=O)CO[C@@H]1C[C@@H]2O` [paclitaxel, reference compound], in experiment [2] (setting [16]), the animal survival entry is given as “statistically significant prolongation of animal survival” and the “in vivo tumor growth” value was “slowed down in vivo tumor growth”.
